Data published in patent US10723764B2, “Anti-microbial peptides and methods of use thereof” (priority 2011, dated 2020).
Converted amounts (≈) assume the structure as drawn. Read-outs that look alike come from different tables or passages of the source. Where a SMILES comes first, the peptide text is derived from it. [ ]: non-standard residue; d: D form. Phe(4-CF3) = N[C@@H](Cc1ccc(C(F)(F)F)cc1)C(=O)O; Bip = N[C@@H](Cc1ccc(-c2ccccc2)cc1)C(=O)O; 2Nal = N[C@@H](Cc1ccc2ccccc2c1)C(=O)O

Tests used:
[1] = system: Pseudomonas aeruginosa PAO1; format: cell-based
Protocol: The bacterial strains used in the study are Bacillus subtilis 168, methicillin-resistant Staphylococcus aureus USA300 LAC (Gram-positive), Escherichia coli K12, and Pseudomonas aeruginosa PAO1 (Gram negative). The antibacterial activities of the peptides were determined using the standard broth microdilution method (Wang et al. (2005) J. Biol. Chem., 280:5803-5811). In brief, the bacterial culture (90 μL) was treated with a series of peptide solutions (10 μL), each with two-fold dilution. After overnight incubation at 37° C., the microplate was read on a ChroMate® 4300 Microplate Reader at 630 nm (GMI, Ramsey, Minn.).
For the initial screen, antimicrobial activities of these peptides against S. aureus and E. coli were evaluated using the standard broth microdilution protocol (Wang, G. (2008) J. Biol. Chem., 283:32637-43). […] Subsequently, the in vitro activity of these six peptides was evaluated against Bacillus subtilis and Pseudomonas aeruginosa (Table 6). […] While maculatin 1.3 is active against two Gram-positive but not two Gram-negative bacterial strains, DASamP1 is species-specific since it active only against S. aureus. The finding that ascaphin-8, […], and piscidin 1 are wide-spectrum AMPs agrees with the literature (Apponyi et al. (2004) Peptides 25:1035-1054; Conlon et al. (2004) Biochem. Biophys. Res. Commun., 320:170-175; Silphaduang et al. (2001) Nature 414:268-269; Souza et al. (2005) J. Immunol., 186:6585-6596). For lycotoxin I, it was previously found to active against Gram-negative E. coli and yeast (Yan et al. (1998) J. Biol. Chem., 273:2059-2066).
(§1) The antibacterial activities of the peptides were determined using the standard broth microdilution method (Mishra et al. (2012) J. Am. Chem. Soc., 134:12426-12429; Wang et al. (2005) Biol. Chem., 280:5803-5811). Briefly, the bacterial culture was treated with a series of peptide solutions, each with two-fold dilution. After overnight incubation at 37° C., the microplate was read on a ChroMate® 4300 Microplate Reader at 630 nm (GMI, Ramsey, Minn.).

[2] = system: human erythrocytes; details: for HL50 (μM), peptide concentration that causes 50% lysis of human erythrocytes: Table 10; for hemolysis: human, 160 µM
Protocol: (§2) Peptide hemolysis was assayed using an established protocol (Malmsten et al. (2011) PLoS One 6:e16400). In brief, fresh blood, obtained from the UNMC Blood Bank, was washed three times with PBS buffer and made into a 5% solution. To 90 μL of this solution, 10 μL of a peptide solution was added and incubated at 37° C. for one hour. After centrifugation at 13,000 rpm, aliquots of the supernatant were transferred to a fresh 96 well microplate. The absorbance of the solutions was measured at 545 nm to detect the amount of hemoglobin released. The percent lysis was calculated by assuming 100% release when treated with 2% Triton X-100 and no lysis (0%) when treated with PBS buffer. HL50 was the peptide concentration that caused 50% lysis of human erythrocytes. The cell selectivity (CS) indexes were calculated as the ratio of HL50 to the MIC of the peptide against S. aureus USA300.
(§3) The hemolytic effects of the six peptides were also compared on human red blood cells (hRBC) using an established protocol (Malmsten et al. (2011) PLoS One 6:e16400). […] A high TI indicates good cell selectivity.
(§4) Peptide hemolysis was assayed using an established protocol (Menousek et al. (2012) Int. J. Antimicrob. Agents 39:402-406; Malmsten et al. (2011) PLoS One 6:e16400). Briefly, blood cells were washed three times with phosphate-buffered saline (PBS) and were diluted to a 5% solution. Following peptide treatment, incubation at 37° C. for 1 hour and centrifugation at 13,000 rpm, aliquots of the supernatant were transferred to a fresh 96-well microplate. To assess peptide cytotoxicity, the amount of hemoglobin released was measured at 545 nm. Percent lysis was calculated by assuming 100% release when human blood cells were treated with 2% Triton X-100 and 0% release when they were incubated with PBS buffer.

[3] = system: E. faecium ATCC51559; format: cell-based, Enterococcus faecium
Protocol: as §1

[4] = system: A. baumannii B2367-12; format: cell-based, Acinetobacter baumanii
Protocol: as §1

[5] = system: E. cloacae B2366-12; format: cell-based
Protocol: as §1

[6] = system: methicillin-resistant Staphylococcus aureus USA300 LAC; details: for MIC (μM) SA: S. aureus USA300 LAC, Table 10; for S. aureus USA 300 MIC: Table 8
Protocol: This was done by modifying the standard microdilution antimicrobial assays (Wang, G. (2008) J. Biol. Chem., 283:32637-32643). Specifically, the bacterial wells with a high peptide concentration (e.g. 100 μM) are duplicated (e.g., two for antimicrobial assays and two for protease stability assays). As an illustration, chymotrypsin was applied to the duplicated wells at a peptide:protease molar ratio of 25:1.

[7] = human, hemolysis, at 160 μM, human red blood cells
Protocol: as §2, §3, §4

[8] = system: ESKAPE pathogens; format: cell-based; details: E. coli, A. baumannii, and E. cloacae
Protocol: as §1
A rational design was conducted on the basis of the 3D structure of GF-17d3. […] The noncoherent packing of the GF-17d3 side chains caused a hydrophobic defect in the structure (FIGS. 8C and 8D, arrow), leading to reduced hydrophobicity. Accordingly, it was hypothesized that the antimicrobial activity of this peptide 17F2 (sequence GX1KRLVQRLKDX2LRNLV (SEQ ID NO: 58), Table 9) could be enhanced by filling in the hydrophobic cavity (FIG. 8D, arrow) with a larger hydrophobic side chain. The antimicrobial activities of these peptide analogues were evaluated using the standard microdilution assays (Mishra et al. (2012) J. Am. Chem. Soc., 134:12426-12429), and the minimal inhibitory concentrations (MIC) against a panel of the ESKAPE pathogens are provided in Table 10. […] To compare the two sites, these two substitutions at positions X1 and X2 were swapped to obtain 17Naph-mF. […] In addition, biphenylalanines were incorporated at position X1 alone or at both X1 and X2 of the 17F2 template. […] The killing abilities of these peptides are essentially proportional to their MIC values as well as retention times (a measure of hydrophobicity) on a reverse-phase HPLC column (Mishra et al. (2012) J. Am. Chem. Soc., 134:12426-12429).

[9] = system: Escherichia coli K12; details: Table 8

CC(C)C[C@H](NC(=O)[C@H](CC(N)=O)NC(=O)[C@H](CCCNC(=N)N)NC(=O)[C@@H](CC(C)C)NC(=O)[C@H](Cc1ccc2ccccc2c1)NC(=O)[C@H](CC(=O)O)NC(=O)[C@H](CCCCN)NC(=O)[C@@H](CC(C)C)NC(=O)[C@H](CCCNC(=N)N)NC(=O)[C@H](CCC(N)=O)NC(=O)[C@@H](NC(=O)[C@@H](CC(C)C)NC(=O)[C@H](CCCNC(=N)N)NC(=O)[C@H](CCCCN)NC(=O)[C@H](Cc1ccccc1)NC(=O)CN)C(C)C)C(=O)N[C@H](C(N)=O)C(C)C [17F-Naph, GX1KRLVQRLKDX2LRNLV] (H-GFKR[dL]VQR[dL]KD[2Nal][dL]RNLV-NH2)
MIC (μM) PA [1]: 12.5 µM (≈ 26.9 µg/mL)
HL50 (μM), peptide concentration that causes 50% lysis of human erythrocytes [2]: >900 µM
MIC (μM) EF ([3]; ATCC51559): 3.1 µM (≈ 6.67 µg/mL)
MIC (μM) AB [4]: 3.1 µM (≈ 6.67 µg/mL)
MIC (μM) EC ([5]; E. cloacae B2366-12): 12.5 µM (≈ 26.9 µg/mL)
MIC (μM) SA [6]: 25 µM (≈ 53.8 µg/mL)

CC(C)C[C@H](NC(=O)[C@H](CC(N)=O)NC(=O)[C@H](CCCNC(=N)N)NC(=O)[C@@H](CC(C)C)NC(=O)[C@H](Cc1ccc(C(F)(F)F)cc1)NC(=O)[C@H](CC(=O)O)NC(=O)[C@H](CCCCN)NC(=O)[C@@H](CC(C)C)NC(=O)[C@H](CCCNC(=N)N)NC(=O)[C@H](CCC(N)=O)NC(=O)[C@@H](NC(=O)[C@@H](CC(C)C)NC(=O)[C@H](CCCNC(=N)N)NC(=O)[C@H](CCCCN)NC(=O)[C@H](Cc1ccc2ccccc2c1)NC(=O)CN)C(C)C)C(=O)N[C@H](C(N)=O)C(C)C [17Naph-mF, GX1KRLVQRLKDX2LRNLV] (H-G[2Nal]KR[dL]VQR[dL]KD[Phe(4-CF3)][dL]RNLV-NH2)
MIC (μM) PA [1]: 6.2 to 12.5 µM
HL50 (μM), peptide concentration that causes 50% lysis of human erythrocytes [2]: 950 µM
MIC (μM) EF ([3]; ATCC51559): 3.1 µM (≈ 6.88 µg/mL)
MIC (μM) AB [4]: 3.1 µM (≈ 6.88 µg/mL)
MIC (μM) EC ([5]; E. cloacae B2366-12): 6.2 to 12.5 µM
MIC (μM) SA [6]: 6.2 µM (≈ 13.8 µg/mL)

CC(C)C[C@H](NC(=O)[C@H](CC(N)=O)NC(=O)[C@H](CCCNC(=N)N)NC(=O)[C@@H](CC(C)C)NC(=O)[C@H](Cc1ccc2ccccc2c1)NC(=O)[C@H](CC(=O)O)NC(=O)[C@H](CCCCN)NC(=O)[C@@H](CC(C)C)NC(=O)[C@H](CCCNC(=N)N)NC(=O)[C@H](CCC(N)=O)NC(=O)[C@@H](NC(=O)[C@@H](CC(C)C)NC(=O)[C@H](CCCNC(=N)N)NC(=O)[C@H](CCCCN)NC(=O)[C@H](Cc1ccc(C(F)(F)F)cc1)NC(=O)CN)C(C)C)C(=O)N[C@H](C(N)=O)C(C)C [17mF-Naph, GX1KRLVQRLKDX2LRNLV] (H-G[Phe(4-CF3)]KR[dL]VQR[dL]KD[2Nal][dL]RNLV-NH2)
MIC (μM) PA [1]: 6.2 to 12.5 µM
HL50 (μM), peptide concentration that causes 50% lysis of human erythrocytes [2]: 500 µM
MIC (μM) EF ([3]; ATCC51559): 3.1 µM (≈ 6.88 µg/mL)
MIC (μM) AB [4]: 3.1 µM (≈ 6.88 µg/mL)
MIC (μM) EC ([5]; B2366-12): 6.2 µM (≈ 13.8 µg/mL)
MIC (μM) SA [6]: 6.2 µM (≈ 13.8 µg/mL)

CC(C)C[C@H](NC(=O)[C@H](CC(N)=O)NC(=O)[C@H](CCCNC(=N)N)NC(=O)[C@@H](CC(C)C)NC(=O)[C@H](Cc1ccccc1)NC(=O)[C@H](CC(=O)O)NC(=O)[C@H](CCCCN)NC(=O)[C@@H](CC(C)C)NC(=O)[C@H](CCCNC(=N)N)NC(=O)[C@H](CCC(N)=O)NC(=O)[C@@H](NC(=O)[C@@H](CC(C)C)NC(=O)[C@H](CCCNC(=N)N)NC(=O)[C@H](CCCCN)NC(=O)[C@H](Cc1ccccc1)NC(=O)CN)C(C)C)C(=O)N[C@H](C(N)=O)C(C)C [A128A, GX1KRLVQRLKDX2LRNLV-amide] (H-GFKR[dL]VQR[dL]KDF[dL]RNLV-NH2)
hemolysis at 160 µM [7]: 3 to 5%
hemolysis [2]: <3%
MIC (μM) AB [4]: 6.2 to 12.5 µM
MIC (μM) EC ([5]; B2366-12): 25 µM (≈ 52.5 µg/mL)
MIC against E. coli, A. baumannii, and E. cloacae [8]: 6.2 to 25 µM
S. aureus USA 300 MIC [6]: > 160 µM
E. coli K12 MIC [9]: 10 µM

CC(C)C[C@H](NC(=O)[C@H](CC(N)=O)NC(=O)[C@H](CCCNC(=N)N)NC(=O)[C@@H](CC(C)C)NC(=O)[C@H](Cc1ccccc1)NC(=O)[C@H](CC(=O)O)NC(=O)[C@H](CCCCN)NC(=O)[C@@H](CC(C)C)NC(=O)[C@H](CCCNC(=N)N)NC(=O)[C@H](CCC(N)=O)NC(=O)[C@@H](NC(=O)[C@@H](CC(C)C)NC(=O)[C@H](CCCNC(=N)N)NC(=O)[C@H](CCCCN)NC(=O)[C@H](Cc1ccc(-c2ccccc2)cc1)NC(=O)CN)C(C)C)C(=O)N[C@H](C(N)=O)C(C)C [C128A, GX1KRLVQRLKDX2LRNLV-amide] (H-G[Bip]KR[dL]VQR[dL]KDF[dL]RNLV-NH2)
MIC (μM) PA [1]: 12.5 µM (≈ 27.2 µg/mL)
hemolysis at 160 µM [7]: 3 to 5%
HL50 (μM), peptide concentration that causes 50% lysis of human erythrocytes [2]: >900 µM
hemolysis [2]: <5%
MIC (μM) EF ([3]; E. faecium ATCC51559): 12.5 µM (≈ 27.2 µg/mL)
MIC (μM) AB [4]: 3.1 µM (≈ 6.75 µg/mL)
MIC (μM) EC ([5]; E. cloacae B2366-12): 12.5 µM (≈ 27.2 µg/mL)
MIC (μM) SA [6]: 12.5 µM (≈ 27.2 µg/mL)
S. aureus USA 300 MIC [6]: 40 µM
E. coli K12 MIC [9]: 5 µM
